Data published in patent US20260325653A1, “HETEROBIFUNCTIONAL SMALL MOLECULES THAT DEUBIQUITINYLATE AND STABILIZE TARGET PROTEINS BY RECRUITING USP7” (ICAHN SCHOOL OF MEDICINE AT MOUNT SINAI, priority 2023, published 2026).

Tested on: CFTR mRNA
Assay: RT-qPCR analysis of CFTR mRNA levels in CFBE41o− 4.7 ΔF508-CFTR cells
Type: cell-based, human
Conditions: 10 μM, 24 h

Compound: Cc1ccc(NC(=O)C2(c3ccc4c(c3)OC(F)(F)O4)CC2)nc1-c1cccc(C(=O)NCCCCCCCCCNC(=O)CNCc2ccc(-c3c4ncn(CC5(O)CCN(C(=O)C[C@@H](C)c6ccccc6)CC5)c(=O)c4nn3C)cc2)c1 [MS6869, (R)-3-(6-(1-(2,2-difluorobenzo[d][1,3]dioxol-5-yl)cyclopropane-1-carboxamido)-3-methylpyridin-2-yl)-N-(9-(2-((4-(6-((4-hydroxy-1-(3-phenylbutanoyl)piperidin-4-yl)methyl)-2-methyl-7-oxo-6,7-dihydro-2H-pyrazolo[4,3-d]pyrimidin-3-yl)benzyl)amino)acetamido)nonyl)benzamide]
- mRNA levels of CFTR: do not affect the mRNA levels of CFTR
